According to patent US20240082268A1, “METHODS AND COMPOSITIONS FOR CONTROLLING NEUROINFLAMMATION” (Invenux, LLC, priority 2021, published 2024):

Key:
[1] = test system: CD68 (microglia activation); assay: CD68 immunoreactivity in brain slices, mouse model of MPS IIIB; type: in vivo
Protocol: (§1) Brain slices were taken along the rostro caudal axis in a serial section. Quantification using the brain slices was performed using Image Pro Premiere software.
(§2) The breeding pairs of MPS IIIB mice were obtained from Jackson Laboratory (JAX stock #003827) and a MPS IIIB mouse colony was established. In MPS IIIB or Sanfillipo syndrome mice, both alleles of alpha-N-acetylglucosaminidase (NAGLU) are disrupted, knocked out (KO), by insertion of a neomycin resistance gene via homologous recombination. Gografe S I; Garbuzova-Davis S; Willing A E; Haas K; Chamizo W; Sanberg P R. Mouse model of Sanfilippo syndrome type B: relation of phenotypic features to background strain Comp Med 53(6):622-32. […] The heterozygous (Het) mice have only one allele of the NAGLU gene disrupted and can fully metabolize HS.
(§3) FIG. 1A and FIG. 1B show bar graphs of the percentage staining of Cluster of Differentiation 68 (CD68) and glial fibrillary acidic protein (GFAP), respectively, in serial section (one every twelve sections of 40 um thick) along the rostrocaudal axis of the brain after 30 days. […]
(§4) Quantification of brain slices was performed using Image Pro Premiere software.
(§5) After 30 days, animals were sacrificed and brain slices were taken along the rostro caudal axis in a serial section. Quantification was performed using Image Pro Premiere software.

[2] = test system: GFAP (astrocyte activation); assay: GFAP immunoreactivity in brain slices, mouse model of MPS IIIB; type: in vivo
Protocol: as §1, §2, §3, §4, §5

MPS IIIB KO mice = assay: Behavioral and cognitive tests in mouse model of MPS IIIB; type: in vivo; settings: MPS IIIB KO mice, 100, 33 or 10 mg/kg/day oral, after 6 months, vs vehicle control
Protocol: CBD or vehicle is administered daily by oral gavage. […] At baseline, and after 3, 6, and 9 months, the mice are given behavioral tests to measure hyperactive and social interaction, and cognitive tests to measure spatial memory and learning deficits.

[3] = test system: inflammatory signaling molecules; assay: Inflammatory signaling molecules in plasma and CSF, mouse model of MPS IIIB; type: in vivo; settings: MPS IIIB KO mice, 100, 33 or 10 mg/kg/day oral, after 6 months, vs vehicle control
Excerpt: In particular, less of one or more of IL-1alpha, IL1beta, IL-2, IL-4, IL-6, IL-8, 11-10, IL-17A, IL-23, INF-gamma, MCP-1, caspase-1, caspase-3, TNF-alpha, and TGF-beta-alpha is expected.

[4] = molecular target: voltage-gated sodium channel Nav 1.6 receptor (Homo sapiens, UniProt Q9UQD0); settings: cited from earlier work
voltage-gated sodium channel Nav 1.6 receptor, sequence (Q9UQD0 whole entry): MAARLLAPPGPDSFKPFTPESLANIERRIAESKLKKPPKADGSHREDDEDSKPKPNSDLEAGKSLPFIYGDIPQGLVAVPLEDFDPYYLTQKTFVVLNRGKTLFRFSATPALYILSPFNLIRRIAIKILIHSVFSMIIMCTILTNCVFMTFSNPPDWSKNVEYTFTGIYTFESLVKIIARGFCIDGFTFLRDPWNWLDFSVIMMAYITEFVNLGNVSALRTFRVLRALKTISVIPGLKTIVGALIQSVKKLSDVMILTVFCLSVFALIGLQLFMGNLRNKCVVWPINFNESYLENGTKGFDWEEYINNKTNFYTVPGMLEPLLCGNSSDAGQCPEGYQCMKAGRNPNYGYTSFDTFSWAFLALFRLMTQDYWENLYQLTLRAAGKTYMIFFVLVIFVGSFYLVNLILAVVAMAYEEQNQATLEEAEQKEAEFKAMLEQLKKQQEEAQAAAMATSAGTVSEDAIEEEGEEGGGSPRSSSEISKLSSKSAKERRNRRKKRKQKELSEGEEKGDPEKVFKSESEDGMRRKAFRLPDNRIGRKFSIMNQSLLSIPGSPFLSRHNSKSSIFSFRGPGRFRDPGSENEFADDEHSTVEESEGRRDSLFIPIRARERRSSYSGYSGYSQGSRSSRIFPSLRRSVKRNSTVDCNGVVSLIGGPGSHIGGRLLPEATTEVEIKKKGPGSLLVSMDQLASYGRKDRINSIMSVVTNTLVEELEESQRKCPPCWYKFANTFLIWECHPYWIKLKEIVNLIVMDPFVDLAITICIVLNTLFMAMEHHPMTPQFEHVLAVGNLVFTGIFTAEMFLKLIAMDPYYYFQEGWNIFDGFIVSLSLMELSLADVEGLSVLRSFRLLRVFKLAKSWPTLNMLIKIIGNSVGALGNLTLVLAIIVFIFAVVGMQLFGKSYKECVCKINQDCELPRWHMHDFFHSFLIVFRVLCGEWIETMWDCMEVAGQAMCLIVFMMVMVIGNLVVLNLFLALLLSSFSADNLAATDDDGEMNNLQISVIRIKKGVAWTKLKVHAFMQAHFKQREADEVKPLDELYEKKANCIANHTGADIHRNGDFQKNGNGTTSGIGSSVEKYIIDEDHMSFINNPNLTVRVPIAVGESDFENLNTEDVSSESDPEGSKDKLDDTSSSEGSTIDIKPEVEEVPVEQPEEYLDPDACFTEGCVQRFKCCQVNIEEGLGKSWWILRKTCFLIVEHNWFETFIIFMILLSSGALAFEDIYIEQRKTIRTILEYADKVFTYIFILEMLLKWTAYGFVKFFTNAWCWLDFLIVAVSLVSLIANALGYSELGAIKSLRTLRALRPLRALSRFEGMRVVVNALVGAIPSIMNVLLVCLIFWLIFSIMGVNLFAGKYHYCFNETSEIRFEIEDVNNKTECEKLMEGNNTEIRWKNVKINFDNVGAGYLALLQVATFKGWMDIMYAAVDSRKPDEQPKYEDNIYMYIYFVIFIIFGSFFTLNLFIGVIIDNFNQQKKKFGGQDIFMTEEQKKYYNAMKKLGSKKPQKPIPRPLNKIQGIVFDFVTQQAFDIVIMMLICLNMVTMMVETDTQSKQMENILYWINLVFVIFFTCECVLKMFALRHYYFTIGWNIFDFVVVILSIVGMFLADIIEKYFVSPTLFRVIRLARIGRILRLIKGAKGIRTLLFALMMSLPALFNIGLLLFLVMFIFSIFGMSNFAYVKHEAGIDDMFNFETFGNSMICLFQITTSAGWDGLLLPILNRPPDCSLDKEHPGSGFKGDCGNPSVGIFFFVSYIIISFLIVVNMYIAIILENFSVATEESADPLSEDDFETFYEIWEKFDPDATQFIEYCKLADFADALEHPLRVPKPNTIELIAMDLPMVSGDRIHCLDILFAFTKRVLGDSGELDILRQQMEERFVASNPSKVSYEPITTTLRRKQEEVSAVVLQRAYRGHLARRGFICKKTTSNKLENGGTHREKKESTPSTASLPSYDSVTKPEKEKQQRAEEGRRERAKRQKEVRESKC

[5] = molecular target: CB2 endocannabinoid receptor (Homo sapiens, UniProt P34972); settings: cited from earlier work
CB2 endocannabinoid receptor, sequence (P34972 whole entry): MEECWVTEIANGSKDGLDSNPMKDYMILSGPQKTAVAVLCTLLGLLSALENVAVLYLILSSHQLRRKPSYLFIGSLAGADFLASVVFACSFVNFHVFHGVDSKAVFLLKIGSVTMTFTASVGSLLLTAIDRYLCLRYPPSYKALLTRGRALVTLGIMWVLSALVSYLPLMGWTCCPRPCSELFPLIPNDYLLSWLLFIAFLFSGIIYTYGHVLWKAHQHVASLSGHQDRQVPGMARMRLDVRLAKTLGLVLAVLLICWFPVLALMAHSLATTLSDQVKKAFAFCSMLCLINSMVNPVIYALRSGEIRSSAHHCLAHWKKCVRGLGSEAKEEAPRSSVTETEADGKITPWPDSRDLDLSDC

[6] = in vivo; cited from earlier work
[7] = 9-month old MPS IIIB KO mice, 100 mg/kg CBD in sesame oil, oral gavage once daily for 30 days, vs KO mice given vehicle
[8] = MPS IIIB KO mice, 100 mg/kg oral, 30 days, representative brain slices

| Molecule | decrease in the immunoreactivity of CD68 (% area) in brain [1, 7] [%] | microglia cell neuroinflammation and activation (CD68) [1, 8] | decrease in the immunoreactivity of GFAP (% area) in brain [2, 7] [%] | astrocyte cell neuroinflammation and activation (GFAP) [2, 8] | hyperactivity (MPS IIIB KO mice) | learning deficit (MPS IIIB KO mice) | social interaction (MPS IIIB KO mice) | spatial memory (MPS IIIB KO mice) | inflammatory signaling molecules in plasma and CSF [3] | IC50 [4] [µM] | affinity to Nav 1.6 receptor [4] | affinity to CB2 receptor [5] | crossing of the BBB [6] |
| --- | --- | --- | --- | --- | --- | --- | --- | --- | --- | --- | --- | --- | --- |
| C=C(C)[C@@H]1CCC(C)=C[C@H]1c1c(O)cc(CCCCC)cc1O [CBD, Cannabidiol] | 30 | significantly decreases | 50 | significantly decreases | less hyperactivity | less learning deficit | more social interaction | less loss of spatial memory | less inflammatory signaling molecules | 1 to 6 | uM affinity | uM affinity |  |
| Adalimumab |  |  |  |  |  |  |  |  |  |  |  |  | does not cross the BBB |
